Laboratory results taken from patent US20040234517A1, “Compositions and methods for diagnosing and treating asthma or other allergic or inflammatory diseases” (WYETH, priority 2003, published 2004).
Entries after “also recorded” stand apart in the source; their conditions may differ. Like-named read-outs stand apart in the source and are kept apart here.

Experiments:
arginase [1] = settings: cited from earlier work
liver arginase = target: T1, liver arginase (Bos taurus, UniProt Q2KJ64); settings: cited from earlier work; for activity toward arginase: concentrations up to 2 mM
T1 sequence (Q2KJ64 1-322): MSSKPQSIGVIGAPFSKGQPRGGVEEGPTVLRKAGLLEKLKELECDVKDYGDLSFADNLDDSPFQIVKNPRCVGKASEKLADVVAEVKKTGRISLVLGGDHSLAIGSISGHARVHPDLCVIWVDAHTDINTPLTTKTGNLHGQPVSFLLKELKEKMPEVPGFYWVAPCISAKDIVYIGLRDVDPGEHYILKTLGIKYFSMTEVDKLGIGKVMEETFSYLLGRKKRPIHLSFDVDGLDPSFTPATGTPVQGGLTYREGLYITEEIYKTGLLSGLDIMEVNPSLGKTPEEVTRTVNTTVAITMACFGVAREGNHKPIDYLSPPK

arginase [2] = target: T2, arginase (Homo sapiens, UniProt P05089); settings: cited from earlier work; for Ki: competitive inhibitors of arginase
T2 sequence (P05089 1-322): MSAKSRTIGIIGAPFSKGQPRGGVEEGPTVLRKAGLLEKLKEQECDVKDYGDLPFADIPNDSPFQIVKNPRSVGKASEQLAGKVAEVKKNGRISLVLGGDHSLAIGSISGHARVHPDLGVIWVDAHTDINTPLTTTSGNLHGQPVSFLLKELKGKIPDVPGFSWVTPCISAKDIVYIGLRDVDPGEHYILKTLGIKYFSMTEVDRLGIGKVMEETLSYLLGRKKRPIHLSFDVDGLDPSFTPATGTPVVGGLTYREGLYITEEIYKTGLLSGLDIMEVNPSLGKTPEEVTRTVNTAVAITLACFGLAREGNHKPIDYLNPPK

rat liver arginase (RLA) = rat liver arginase (RLA) (Rattus norvegicus, UniProt P07824); settings: cited from earlier work; for IC50: read-out: IC50 towards RLA
Chain of rat liver arginase (RLA) (P07824 whole entry): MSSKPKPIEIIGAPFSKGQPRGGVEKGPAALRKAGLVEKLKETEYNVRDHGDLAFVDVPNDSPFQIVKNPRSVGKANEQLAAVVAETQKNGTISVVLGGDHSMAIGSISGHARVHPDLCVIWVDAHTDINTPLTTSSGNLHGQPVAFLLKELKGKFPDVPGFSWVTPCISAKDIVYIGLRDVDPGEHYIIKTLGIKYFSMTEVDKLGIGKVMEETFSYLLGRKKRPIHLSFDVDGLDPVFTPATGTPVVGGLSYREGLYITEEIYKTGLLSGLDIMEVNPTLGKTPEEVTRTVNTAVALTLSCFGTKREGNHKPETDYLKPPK

arginase [3] = settings: cited from earlier work; remark: listed apart in the source
CAT2 = assay: arginine uptake in RAW264.7 cells treated with LPS and IL-13; type: cell-based, murine; settings: 20 mM lysine; Control and LPS/IL-13 treated RAW264.7 cells; 100 μM arginine, three minutes
Description: Briefly, RAW264.7 cells were exposed to media alone (Control) or CAT2-inducing conditions (LPS/IL-13) for 24 hours and were then evaluated for arginine transport over a three-minute period in a final arginine concentration of 100 μM.
RAW264.7 cells, at 1×10^6, were plated on 24-well tissue culture plates in 0.5 ml cDME. After adhering for 2 hours, 0.5 ml media containing LPS (Sigma) and/or rhIL13 (R&D Systems) was added for final concentrations of 1 μg/ml and 10 ng/ml, respectively. After 20 hours incubation at 37° C. in an atmosphere of 5% CO2 and 95% air, the cells were washed 3 times with Arg Wash Buffer #1 (140 mM choline chloride, 5 mM KCl, 0.9 mM CaCl2, 1 mM MgSO4, 5.6 mM glucose, and 25 mM HEPES, pH7.4), then an additional 4 times with Arg Transport Buffer (137 mM choline chloride, 5.4 mM KCl, 1.8 mM CaCl2, 1.2 mM MgSO4, 10 mM HEPES, adjusted to pH7.4). […] Non-saturable binding was quantitated by incubating a replicate well of each treatment with transport buffer containing […]. […] Protein quantitation was performed using a micro-BCA kit (Pierce) and 400 μl lysate suspended in 10 ml scintillation fluid, loaded into glass scintillation vials, and emissions counted for 1 minute. Specific Arginine Uptake was calculated as Saturable binding (CPM/mg protein 400 μM Arg)— Non-saturable binding (CPM/mg protein 5 mM Arg).

rat tracheal explants = assay: carbachol-induced tracheal contraction; settings: 100 mM lysine; preincubated 15 to 20 hours
Description: Briefly, rat tracheal explants were preincubated for 15 to 20 hours with either media or media containing 100 mM L-lysine. The trachea were then washed and contraction measured in a Krebs-Henseleit solution in the presence or absence of 100 mM L-lysine.
Rats between 8-10 weeks of age were used for this experiment. Trachea were rapidly excised and cleaned of adherent connective tissue. […] Composition (mM) of the medium included 0.1 nonessential amino acids, 4% FBS, 2.0 glutamine, 0.05β-mercaptoethanol, 100 U/ml penicillin/100 μg/ml streptomycin.
Trachea were supported longitudinally by a rod with a stainless steel pin into the base of a double-jacketed, glass organ bath filled with 15 ml of Krebs-Henseleit (K-H) solution (37° C.) of the following composition (mM): 118 NaCl; 4.7 KCl; 1.2 KH2PO4; 11.1 Dextrose; 1.2 MgSO4; 2.8 CaCl2; and 25 NaHCO3. The solution was continuously gassed with a 5% CO2 and 95% O2 mixture for the duration of each experiment. The upper support was attached by a loop of silk thread to a TSD125 force transducer. […]
At the end of each experiment, all trachea were blotted on a gauze pad and weighted. Tensions were calculated as milligram tensions per milligram weight (mg/mg) and expressed as an individual percentage (%) of 10^−5 M carbachol-evoked force of the trachea in the absence of the drugs. All values were expressed as Mean ± SE. […]

[4] = test system: RAW264.7 murine macrophage cells; assay: urea production in RAW264.7 cells treated with LPS and IL-13; type: cell-based; settings: 20 mM lysine; LPS/IL-13 treated RAW264.7; 400 μM arginine, 24 hour incubation
Description: Briefly, RAW264.7 macrophages exposed to media alone (Control) or CAT2-inducing conditions (LPS/IL-13) for 24 hours were then equilibrated for 2 hours in Arginine Transport Buffer. After a 24 hour incubation in the presence or absence of competing L-lysine in Arginine Transport Buffer containing a final arginine concentration of 400 μM, urea production was evaluated as described in Example 4. Urea production is expressed as μg of urea in the supernatant/mg of cell lysate protein.
RAW264.7 macrophages were stimulated in 24-well plates as for arginine transport studies (above). After 20 hours of stimulation, the cells were washed three times with Arg Wash Buffer #1 and then an additional four times with Arg Transport Buffer. […] Supernatants were clarified by centrifugation at 12,000 rpm for 10 minutes and 100 μl assayed for urea in triplicate using a UV absorbance kit method (R-Biopharma) following the manufacturer's instructions with the exception that it was performed at 1/10 scale in a 96-well assay plate with a total volume of 300 μl/well. Cells were lysed with 500 μl of 1.0% SDS in 10 mM HEPES, pH 7.4 and the protein quantitated using the Micro-BCA kit (Pierce). Urea production was expressed as μg urea/mg protein lysate.

[5] = target: IL-13 (murine, endogenous in OVA-challenged Balb/c mice) (mouse) (UniProt P20109); assay: cell-based or functional assay
Chain of IL-13 (murine, endogenous in OVA-challenged Balb/c mice) (mouse) (P20109 19-131 limits assumed): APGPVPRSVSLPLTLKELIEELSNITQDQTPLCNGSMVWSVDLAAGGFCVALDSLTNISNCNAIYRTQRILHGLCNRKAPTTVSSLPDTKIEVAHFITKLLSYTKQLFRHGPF

**Q.** With N=C(NO)c1ccc(CC(N)C(=O)O)cc1 (racemic) [4-hydroxyamidino-D,L-phenylalanine] as the molecule, how does the “inhibition of liver arginase and arginase in the alveolar macrophages” value (arginase [1]) read?
**A.** inhibit

**Q.** Which “inhibition of liver arginase and arginase in the alveolar macrophages” value (arginase [1]) does the source give for NC(CCCCC(N)C(=O)O)=NO (racemic) [N omega-hydroxy-D,L-indospicine] here?
**A.** inhibit

**Q.** Which “effect on arginase relative to L-NOHA” value (liver arginase) does the source give for N=C(NO)NCCC[C@@H](N)C(=O)O [D-NOHA] here?
**A.** much less active

**Q.** With O=C(O)CN(CCN(CC(=O)O)CC(=O)O)CC(=O)O [EDTA] as the molecule, how does the “inhibition of arginase activity” value (arginase [2]) read?
**A.** do not inhibit

**Q.** Which results are given for F [F^−, fluoride]?
**A.** Ki (rat liver arginase (RLA); pH 7.4, uncompetitive towards L-Arg binding, reversible): 1300 µM; IC50 (rat liver arginase (RLA); pH 7): 1200 µM; IC50 (rat liver arginase (RLA); pH 10): 19000 µM

**Q.** For NC(=O)NCCC[C@H](N)C(=O)O [L-Cit], which “effect on arginase relative to L-NOHA” value (liver arginase) is on record?
**A.** much weaker inhibitors

**Q.** What about the activity toward arginase (liver arginase) of the same molecule?
**A.** inactive

**Q.** Which results are given for N=C(NO)NCCC[C@H](N)C(=O)O [L-NOHA, N(omega)-Hydroxy-L-arginine]?
**A.** Ki (liver arginase; arginase): 150 µM; IC50 (arginase [3]; murine macrophages (Buga et al.), read-out: IC50 arginase activity): 450 µM; IC50 (arginase [3]; read-out: IC50 hydrolysis of L-arginine to L-ornithine, unstimulated murine macrophages (Tenu et al.)): 400 µM

**Q.** For NCCC[C@H](N)C(=O)O [L-omithine, L-ornithine], which Ki (arginase [2]) is on record?
**A.** 2000 µM

**Q.** Which “effect on arginase relative to L-NOHA” value (liver arginase) does the source give for O=NO [NO2^−] here?
**A.** without effect

**Q.** With O=[N+]([O-])O [NO3^−] as the molecule, how does the “effect on arginase relative to L-NOHA” value (liver arginase) read?
**A.** without effect

**Q.** With [N]=O [NO, nitric oxide] as the molecule, how does the “effect on arginase relative to L-NOHA” value (liver arginase) read?
**A.** much weaker inhibitors

**Q.** Which “inhibition of arginase activity” value (arginase [2]) does the source give for OB(O)O [borate] here?
**A.** S-hyperbolic I-hyperbolic non-competitive inhibitor

**Q.** With O=C(O)CC(O)(CC(=O)O)C(=O)O [citrate] as the molecule, how does the “inhibition of arginase activity” value (arginase [2]) read?
**A.** do not inhibit

**Q.** Which Ki (arginase [2]) does the source give for N=C(N)N [guanidinium chloride] here?
**A.** 100000 µM

**Q.** Which activity toward arginase (liver arginase) does the source give for NO [hydroxylamine] here?
**A.** inactive

**Q.** Which activity toward arginase (liver arginase) does the source give for NC(=O)NO [hydroxyurea] here?
**A.** inactive

**Q.** Which “arginine uptake / saturable arginine transport” value (CAT2) does the source give for NCCCC[C@H](N)C(=O)O [lysine] here?
**A.** inhibited; also recorded: abolished all saturable arginine transport

**Q.** What about the “carbachol-induced rat tracheal contraction” value (rat tracheal explants) of the same molecule?
**A.** inhibited

**Q.** And the urea production [4]?
**A.** inhibited

**Q.** Which activity toward arginase (liver arginase) does the source give for NC(N)=O [urea] here?
**A.** inactive

**Q.** Which inhibition of allergen-induced Arg1 mRNA expression in mouse lung (GeneChip, in vivo) [5] does the source give for “soluble IL-13 receptor fusion protein sIL-13Rα2-Fc (from UniProt O88786 22-334) (Fc fusion)” here?
**A.** 67%
